Data as given in US20250171459A1, “2-METHYL-4',5'-DIHYDROSPIRO[PIPERIDINE-4,7'-THIENO[2,3-C]PYRAN] DERIVATIVES AS INHIBITORS OF APOL1 AND METHODS OF USING SAME” (Vertex Pharmaceuticals Incorporated, priority 2022, published 2025).

Biological target: T1, APOL1 (Homo sapiens, UniProt O14791)
T1 sequence (O14791 1-398 S342G/I384M): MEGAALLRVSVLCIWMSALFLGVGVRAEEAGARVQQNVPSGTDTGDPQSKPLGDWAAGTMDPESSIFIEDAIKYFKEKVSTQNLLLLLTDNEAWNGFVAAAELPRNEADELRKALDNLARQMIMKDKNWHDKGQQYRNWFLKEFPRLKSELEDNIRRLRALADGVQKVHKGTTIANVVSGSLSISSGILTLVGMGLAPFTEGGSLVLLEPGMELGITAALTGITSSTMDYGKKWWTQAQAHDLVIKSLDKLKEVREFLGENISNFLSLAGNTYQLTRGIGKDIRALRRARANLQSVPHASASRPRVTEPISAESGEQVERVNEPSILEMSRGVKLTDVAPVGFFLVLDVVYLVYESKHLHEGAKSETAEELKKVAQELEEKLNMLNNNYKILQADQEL
Experiment: MultiTox-Fluor Multiplex Cytotoxicity Assay in tet-inducible APOL1 T-REx-HEK293 cells (cell rescue, ratio of dead to live cells)
Assay type: cell-based
Details: tet-inducible transgenic APOL1 T-REx-HEK293 cell lines, 50 ng/mL tet, 24 hours; read-out: IP50 (i.e., IC50 for cell proliferation)
From the text: The MultiTox-Fluor Multiplex Cytotoxicity Assay is a single-reagent-addition, homogeneous, fluorescence assay that measures the number of live and dead cells simultaneously in culture wells. The assay measures cell viability and cytotoxicity by detecting two distinct protease activities. […] The substrate enters intact cells, where it is cleaved to generate a fluorescent signal proportional to the number of living cells. […] A ratio of dead to live cells is used to normalize data.
The MultiTox reagent was added to each well and placed back in the incubator for an additional 30 minutes. The plate was read on the EnVision plate reader. A ratio of dead to live cells was used to normalize, and data was imported, analyzed, and fit using Genedata Screener (Basel, Switzerland) software. Data was normalized using percent of control, no tet (100% viability), and 50 ng/mL tet treated (0% viability), and fit using Smart Fit. The reagents, methods, and complete protocol for the MultiTox assay are described below.
Cells were washed with DPBS and then trypsinized to dissociate from the flask. Media was used to quench the trypsin, cells were then pelleted at 200 g and resuspended in fresh cell assay media (DMEM, 2% Tet-free FBS, 2 mM L-glutamine, 100 Units/mL penicillin-streptomycin). […] The plates were then incubated at room temperature for one hour.
Tetracycline is needed to induce APOL1 expression. 1 mg/mL tet stock in water was diluted to 250 ng/mL (5×) in cell assay media.
Compounds were dispensed at 200 nL in DMSO. The final top concentration was 10 μM with a 10 point 3-fold dilution in duplicate in the MultiTox assay.
20 μL was transferred from the 5× tet plate to the ARP and mixed, then 5 μL of 5× tet and the compounds were transferred to the cell plate and mixed using the Bravo. The cell plate was placed in the humidified 37° C. 5% CO2 incubator for 24 hours.
The MultiTox-Fluor Multiplex Cytotoxicity Assay was performed in accordance with the manufacturer's protocol. After cells were incubated with tet and compound for 24 hours, 25 μL of 1× MultiTox reagent was added to each well using the Multidrop dispenser; the plates were placed on a plate shaker (600 rpm) for 2 minutes, then centrifuged briefly and placed back in the 37° C. incubator for 30 minutes. The cell viability (excitation: 400 nm, emission: 486 nm) and cytotoxicity (excitation: 485 nm, emission: 535 nm) were read using the EnVision plate reader. A ratio of dead (cytotoxicity) to live (viability) cells was reported. Data was exported and analyzed in Genedata. Data was normalized using percent of control, no tet (100% viability), and 50 ng/mL tet treated (0% viability), and fit using Smart Fit settings in Genedata.

Row | Structure (SMILES) | IC50
1 | CCc1cc2c(s1)CCO[C@@]21CCN(Cc2cnn(CC(C)(CO)CO)c2)[C@@H](C)C1 [Compound 266] | < 0.1 µM
2 | CCc1cc2c(s1)CCO[C@@]21CCN(Cc2cn(C(C)(C)C(=O)N3CCOCC3)nn2)[C@@H](C)C1 [Compound 164] | 0.5 to 1 µM
3 | Cc1cccc(CN2CC[C@]3(C[C@@H]2C)OC[C@H](O)c2cc(Cl)sc23)n1 [Compound 808] | 0.5 to 1 µM
4 | Cc1cn2nc(CN3CC[C@]4(C[C@@H]3C)OCC(O)c3cc(Cl)sc34)cc2c(NC2CC2)n1 (mixture of isomers) [Compound 826, 2-chloro-1′-[[4-(cyclopropylamino)-6-methyl-pyrazolo[1,5-a]pyrazin-2-yl]methyl]-2′-methyl-spiro[4,5-dihydrothieno[2,3-c]pyran-7,4′-piperidine]-4-ol] | < 0.1 µM
5 | C[C@H]1C[C@@]2(CCN1C[C@H](O)C(N)=O)OCCc1cc(C(F)(F)F)sc12 [Compound 867, (2S)-2-hydroxy-3-[(2′S,7R)-2′-methyl-2-(trifluoromethyl)spiro[4,5-dihydrothieno[2,3-c]pyran-7,4′-piperidine]-1′-yl]propanamide] | 0.1 to 0.5 µM
6 | C[C@H]1C[C@@]2(CCN1Cc1cnn(CC(N)=O)c1)OCCc1cc(Cl)sc12 [Compound 705] | 0.1 to 0.5 µM
7 | CCc1cc2c(s1)CCOC21CCN(Cc2cn(C3CC3)nn2)CC1 [Compound 1112] | 0.5 to 1 µM
8 | CCc1cc2c(s1)CCO[C@@]21CCN(Cc2cn(CCS(C)(=O)=O)nn2)[C@@H](C)C1 [Compound 11, (2′S,4R)-2-ethyl-2′-methyl-1′-[[1-(2-methylsulfonylethyl)triazol-4-yl]methyl]spiro[6,7-dihydrothieno[3,2-c]pyran-4,4′-piperidine]] | < 0.1 µM
9 | CCc1cc2c(s1)CCO[C@@]21CCN(CC(C)O)[C@@H](C)C1 (some centres unmarked) [Compound 242] | 0.1 to 0.5 µM
10 | CCc1cc2c(s1)CCO[C@@]21CCN(Cc2cn(CC3CS(=O)(=O)CCO3)nn2)[C@@H](C)C1 (some centres unmarked) [Compound 96] | < 0.1 µM
11 | CCc1cc2c(s1)CCO[C@@]21CCN(Cc2cn(CCNC(=O)c3ccncc3)nn2)[C@@H](C)C1 [Compound 42] | < 0.1 µM
12 | CC(=O)n1cc(CN2CCC3(CC2)OCCc2sc(Cl)cc23)cn1 [Compound 1166] | 0.1 to 0.5 µM
13 | C[C@H]1C[C@@]2(CCN1Cc1cn(C)nn1)OC[C@H](O)c1cc(Cl)sc12 [Compound 813] | 0.1 to 0.5 µM
14 | C[C@H]1C[C@@]2(CCN1Cc1cnn(CC3(O)CCOC3=O)c1)OCCc1c2sc(C(F)(F)F)c1CO (some centres unmarked) [Compound 951] | 0.5 to 1 µM
15 | CCc1cc2c(s1)CCO[C@@]21CCN(Cc2cn(CC(CO)CC3CCOCC3)nn2)[C@@H](C)C1 (some centres unmarked) [Compound 121] | < 0.1 µM
16 | C[C@H]1C[C@@]2(CCN1Cc1cnccn1)OC[C@H](O)c1cc(Cl)sc12 [Compound 778] | 0.5 to 1 µM
17 | C[C@H]1C[C@@]2(CCN1Cc1cnn(C[C@H](O)C(N)=O)c1)OC[C@@H](O)c1cc(C(F)(F)F)sc12 [Compound 996] | < 0.1 µM
18 | CCc1cc2c(s1)CCOC21CCN(Cc2ccc(C(=O)NC(C)(CC)CO)nc2)CC1 (centres unmarked) [Compound 1045] | < 0.1 µM
19 | CCc1cc2c(s1)CCO[C@@]21CCN(CC2CN(S(=O)(=O)C3CCOCC3)C2)[C@@H](C)C1 [Compound 494] | 0.1 to 0.5 µM
20 | CCc1cc2c(s1)CCO[C@@]21CCN(C[C@H]2C[C@@H](NC(=O)CO)C2)[C@@H](C)C1 [Compound 351] | 0.1 to 0.5 µM
21 | C[C@H]1C[C@@]2(CCN1Cc1cccc(=O)[nH]1)OCCc1cc(CC(F)F)sc12 [Compound 570] | 0.1 to 0.5 µM

Row | Structure (SMILES) | IC50
22 | C[C@H]1C[C@@]2(CCN1Cc1cnn(CCS(C)(=O)=O)c1)OCCc1sc(CC(F)F)cc12 [Compound 523, (2′S,4R)-2-(2,2-difluoroethyl)-2′-methyl-1′-[[1-(2-methylsulfonylethyl)pyrazol-4-yl]methyl]spiro[6,7-dihydrothieno[3,2-c]pyran-4,4′-piperidine]] | < 0.1 µM
23 | C[C@H]1C[C@@]2(CCN1Cc1ccc(C(=O)N(C)C)cc1)OCCc1cc(Cl)sc12 [Compound 660] | 0.1 to 0.5 µM
24 | CCc1cc2c(s1)CCOC21CCN(Cc2ccc(C(=O)Nc3cccc4cc[nH]c34)nc2)CC1 [Compound 1048] | < 0.1 µM
25 | CCc1cc2c(s1)CCO[C@@]21CCN(C[C@H]2C[C@@H](NS(=O)(=O)c3cncc(Cl)c3)C2)[C@@H](C)C1 [Compound 407] | < 0.1 µM
26 | CCc1cc2c(s1)C(C)COC21CCN(Cc2cnn(C)c2)CC1 (single isomer, unassigned) [Compound 1171, 2-ethyl-7-methyl-1′-[(1-methylpyrazol-4-yl)methyl]spiro[6,7-dihydrothieno[3,2-c]pyran-4,4′-piperidine]] | 0.5 to 1 µM
27 | C[C@H]1C[C@@]2(CCN1Cc1ccc(S(C)(=O)=O)cc1)OCCc1cc(Cl)sc12 [Compound 654] | 0.1 to 0.5 µM
28 | CCc1cc2c(s1)CCOC21CCN(Cc2cn(CC(C)(C)S(C)(=O)=O)nn2)CC1 [Compound 1081] | 0.1 to 0.5 µM
29 | CNS(=O)(=O)CCn1cc(CN2CCC3(CC2)OCC(C)(C)c2sc(Cl)cc23)cn1 [Compound 1177, 2-[4-[(2-chloro-7,7-dimethyl-spiro[6H-thieno[3,2-c]pyran-4,4′-piperidine]-1′-yl)methyl]pyrazol-1-yl]-N-methyl-ethanesulfonamide] | < 0.1 µM
30 | CNC(=O)[C@@H](O)CN1CC[C@]2(C[C@@H]1C)OCCc1cc(CC(F)F)sc12 [Compound 612, (2S)-3-[(2′S, 7R)-2-(2,2-difluoroethyl)-2′-methyl-spiro[4,5-dihydrothieno[2,3-c]pyran-7,4′-piperidine]-1′-yl]-2-hydroxy-N-methyl-propanamide] | 0.1 to 0.5 µM
31 | CCc1cc2c(s1)CCO[C@@]21CCN(Cc2cn(CC3(COC)CCOCC3)nn2)[C@@H](C)C1 [Compound 94] | 0.1 to 0.5 µM
32 | Cc1cc2c(s1)CCO[C@@]21CCN(C2CCCC2O)[C@@H](C)C1 (some centres unmarked) [Compound 504] | 0.1 to 0.5 µM
33 | CCc1cc2c(s1)CCO[C@@]21CCN(C[C@H]2C[C@@H](NC(=O)OCC3CC3)C2)[C@@H](C)C1 [Compound 378] | 0.1 to 0.5 µM
34 | C[C@H]1C[C@@]2(CCN1Cc1cnn(C[C@@H](O)C(N)=O)c1)OCCc1c2sc(C(F)(F)F)c1CO [Compound 985, (2R)-2-hydroxy-3-[4-[[(2′S, 7R)-3-(hydroxymethyl)-2′-methyl-2-(trifluoromethyl)spiro[4,5-dihydrothieno[2,3-c]pyran-7,4′-piperidine]-1′-yl]methyl]pyrazol-1-yl]propanamide] | < 0.1 µM
35 | C[C@H]1C[C@@]2(CCN1Cc1cnn(CC3CNC(=O)C3)c1)OCCc1c2sc(C(F)(F)F)c1CO (some centres unmarked) [Compound 921] | < 0.1 µM
36 | CCc1cc2c(s1)CCO[C@@]21CCN(CC2CN(C(=O)c3ncc(OC)o3)C2)[C@@H](C)C1 [Compound 466] | < 0.1 µM
37 | CCc1cc2c(s1)CCO[C@@]21CCN(Cc2cn(CC(F)(F)C3(O)CCOCC3)nn2)[C@@H](C)C1 [Compound 122] | 0.1 to 0.5 µM
38 | C[C@H]1C[C@@]2(CCN1Cc1cn(C)cn1)OCCc1cc(CC(F)F)sc12 [Compound 573] | 0.1 to 0.5 µM
39 | CCc1cc2c(s1)CCO[C@@]21CCN(Cc2cn(C(C)c3nncn3CCOC)nn2)[C@@H](C)C1 (some centres unmarked) [Compound 163] | 0.5 to 1 µM
40 | CS(=O)(=O)CCn1cc(CN2CCC3(CC2)OCC(O)c2cc(Cl)sc23)cn1 (centres unmarked) [Compound 1181, 2-chloro-1′-[[1-(2-methylsulfonylethyl)pyrazol-4-yl]methyl]spiro[4,5-dihydrothieno[2,3-c]pyran-7,4′-piperidine]-4-ol] | 0.5 to 1 µM
41 | C[C@H]1C[C@@]2(CCN1Cc1cn(C3CCOCC3)nn1)OCCc1cc(CC(F)F)sc12 [Compound 547] | < 0.1 µM
